Where a SMILES comes first, the peptide text is derived from it. The star is where a group is joined. Cbz = O=C(OCc1ccccc1)*
Legend:
dystrophin = conditions: mdx mice; variability among animals; cited from earlier work
DMD gene exon 45 = test: Exon 45 skipping in control myotubes transfected with PS221 in presence of pentoxifylline (RT-PCR); assay type: cell-based, human; conditions: 250 nM PS221, 0 to 0.5 mg/ml pentoxifylline, RNA 24 hrs after transfection
Experimental: (§1) A., B. Differentiated muscle cell cultures (myotubes) derived from a healthy control individual were transfected with 250 nM PS188 ([5′ […] 3′; SEQ ID NO:10] an AON optimized to specifically skip exon 44) or 250 nM PS221 ([5′ […] 3′; SEQ ID NO: 60] an AON optimized to specifically skip exon 45) in the presence of 0 to 0.5 mg/ml pentoxifylline, using the transfection reagent polymer UNIFectylin (2.0 μl UNIFectylin per μg AON in 0.15M NaCl). UNIFectylin interacts electrostatically with nucleic acids, provided that the nucleic acid is negatively charged (such as 2′-O-methyl phosphorothioate AONs). Pentoxyfillin (Sigma Aldrich) was dissolved in water. Total RNA was isolated 24 hrs after transfection in RNA-Bee solution (Campro Scientific, The Netherlands) according to the manufacturer's instructions. For cDNA synthesis with reverse transcriptase (Roche Diagnostics, The Netherlands), 500 ng of RNA was used in a 20 μl reaction at 55° C. for 30 min, reverse primed with DMD gene-specific primers. First PCRs were performed with outer primer sets, for 20 cycles of 94° C. (40 sec), 60° C. (40 sec), and 72° C. (60 sec). One μl of this reaction (diluted 1:10) was then re-amplified using nested primer combinations in the exons directly flanking exon 44 or 45, with 30 cycles of 94° C. (40 sec), 60° C. (40 sec), and 72° C. (60 sec). PCR products were analysed on 2% agarose gels. Skipping efficiencies were determined by quantification of PCR products using the DNA 1000 LabChip® Kit and the Agilent 2100 bioanalyzer (Agilent Technologies, The Netherlands).

DMD gene exon 44 = test: Exon 44 skipping in control myotubes transfected with PS188 in presence of pentoxifylline (RT-PCR); assay type: cell-based, human; conditions: 250 nM PS188, 0 to 0.5 mg/ml pentoxifylline, RNA 24 hrs after transfection
Experimental: as §1

[1] = tested on: exon 23 of the dystrophin gene; test: Exon 23 skipping in mdx mice treated with PS49 with or without pentoxyfilline (RT-PCR); assay type: in vivo
Experimental: In a pre-clinical study in mdx mice (animal model for DMD) the effect of adjunct compound pentoxyfilline on AON-induced exon skipping was assessed. Mdx mice (C57Bl/10ScSn-mdx/J) were obtained from Charles River Laboratories (The Netherlands). These mice are dystrophin-deficient due to a nonsense mutation in exon 23. AON-induced exon 23 skipping is therapeutic in mdx mice by removing the nonsense mutation and correction of the open reading frame. Two mdx mice per group were injected subcutaneously with: Group 1) pentoxyfilline (50 mg/kg, wk 1-2), Group 2) mouse-specific antisense oligonucleotide PS49 designed to specifically induce exon 23 skipping (100 mg/kg, wk 2 (2 times), Group 3) pentoxyfilline (50 mg/kg, wk 1-2)+PS49 (100 mg/kg, wk 2 (2 times). PS49 (5′ […] 3′) has a full-length phosphorothioate backbone and 2′O-methyl modified ribose molecules.
All mice were sacrificed at 1 week post-last-injection. Different muscles groups, including quadriceps, tibialis anterior, triceps and heart muscles were isolated and frozen in liquid nitrogen-cooled 2-methylbutane. […] PCR products were analysed on 2% agarose gels. Skipping efficiencies were determined by quantification of PCR products using the DNA 1000 LabChip® Kit and the Agilent 2100 bioanalyzer (Agilent Technologies, The Netherlands).

[2] = tested on: exon 23 of the dystrophin gene; test: Exon 23 skipping in mdx mice treated with PS49 with or without prednisolone (RT-PCR); assay type: in vivo
Experimental: Two mdx mice per group were injected subcutaneously with: Group 1) physiologic salt (wk 1-8), Group 2) prednisolone (1 mg/kg, wk 1-8), Group 3) mouse-specific antisense oligonucleotide PS49 designed to specifically induce exon 23 skipping (100 mg/kg, wk 4 (5 times), week 5-8 (2 times), Group 4) prednisolone (1 mg/kg, wk 1-8)+PS49 (100 mg/kg, wk 4 (5 times), week 5-8 (2 times). PS49 (5′ [sequence] 3′) has a full-length phosphorothioate backbone and 2′O-methyl modified ribose molecules.
All mice were sacrificed at 1 week post-last-injection. Different muscles groups, including quadriceps, tibialis anterior, and diaphragm muscles were isolated and frozen in liquid nitrogen-cooled 2-methylbutane. For RT-PCR analysis, the muscle samples were homogenized in the RNA-Bee solution (Campro Scientific, The Netherlands). Total RNA was isolated and purified according to the manufacturer's instructions. For cDNA synthesis with reverse transcriptase (Roche Diagnostics, The Netherlands), 300 ng of RNA was used in a 20 μl reaction at 55° C. for 30 min, reverse primed with mouse DMD gene-specific primers. First PCRs were performed with outer primer sets, for 20 cycles of 94° C. […] PCR products were analysed on 2% agarose gels. Skipping efficiencies were determined by quantification of PCR products using the DNA 1000 LabChip® Kit and the Agilent 2100 bioanalyzer (Agilent Technologies, The Netherlands).

20S and 26S proteasomes = conditions: read-out: Ki (proteasomal inhibitor); cited from earlier work
[3] = mdx mice, s.c., sacrificed 1 week post-last-injection

For gentamicin, the “novel dystrophin expression, of normal level” value (dystrophin) is given as “up to 20%”.
For “PS221: 5′ AUUCAAUGUUCUGACAACAGUUUGC 3′; SEQ ID NO: 60; an AON optimized to specifically skip exon 45 (chemistry not given here)”, the “exon 45 skipping levels” value (DMD gene exon 45) was “increasing levels”.
In the case of `CC(=O)CCCCn1c(=O)c2c(ncn2C)n(C)c1=O` [pentoxifylline], the “exon 44 skipping levels” value (DMD gene exon 44) is reported as “enhances exon skipping levels”, the “exon 44 skipping levels” value (DMD gene exon 44; listed as pentoxyfilline) is reported as “enhanced” and the “exon 45 skipping levels” value (DMD gene exon 45) is reported as “enhances exon skipping levels”. For the same compound, the “exon 45 skipping levels” value (DMD gene exon 45; listed as pentoxyfilline) was “enhanced”, the “exon 23 skipping in muscles (RT-PCR)” value [1, 3] was “No exon 23 skipping was observed” and the “exon 23 skipping levels, PS49 plus pentoxyfilline (group 3) compared to PS49 only (group 2)” value ([1]; quadriceps, tibialis anterior, triceps, heart, pentoxyfilline 50 mg/kg wk 1-2, PS49 100 mg/kg) was “enhances exon 23 skipping levels”.
In the case of `C[C@]12C=CC(=O)C=C1CC[C@@H]1[C@@H]2[C@@H](O)C[C@@]2(C)[C@H]1CC[C@]2(O)C(=O)CO` [prednisolone], the “exon 23 skipping in muscles (RT-PCR)” value [2, 3] is reported as “No exon 23 skipping was observed” and the “exon 23 skipping levels, PS49 plus prednisolone (group 4) compared to PS49 only (group 3)” value ([2]; quadriceps, tibialis anterior, diaphragm, prednisolone 1 mg/kg wk 1-8, PS49 100 mg/kg) is reported as “enhances exon 23 skipping levels”.
For “PS188: 5′ UCAGCUUCUGUUAGCCACUG 3′; SEQ ID NO:10; an AON optimized to specifically skip exon 44 (chemistry not given here)”, the “exon 44 skipping levels” value (DMD gene exon 44) was “increasing levels”.
In the case of `CC(C)C[C@@H](C=O)NC(=O)[C@H](CC(C)C)NC(=O)[C@H](CC(C)C)NC(=O)OCc1ccccc1` [MG-132, CBZ-leucyl-leucyl-leucinal] (Cbz-Leu-Leu-Leu-aldehyde), the Ki (20S and 26S proteasomes) is listed as 4 nM.

From patent USRE48468E1, “Means and methods for counteracting muscle disorders” (BioMarin Technologies B.V., priority 2007, dated 2021)
